Reference: patent publication US4925861A, “Carboxystyrene derivatives and drugs containing them as effective ingredients” (Mitsubishi Kasei Corporation, priority 1987, dated 1990)

System: SRS extracted from guinea pig lung
Experiment: in vitro SRS antagonistic activity (contraction of isolated guinea pig ileum)
Format: cell-based
Details: Cavia porcellus, concentration reducing the control contraction (one unit of SRS) of guinea pig ileum by 50%, Tyrode's solution, 37° C., mepyramine and atropine present, read-out: Anti-SRS Activity (Minimal Effective Concentration)
Description: The terminal ileum was taken from a male Hartley guinea pig (200 to 450 g) and the lumen was washed. The ileum was set in 5 ml of a tissue bath containing Tyrode's solution: NaCl 136 mM, KCl 2.7 mM, NaHCO3 11.9 mM, MgCl2 1.05 mM, CaCl2 1.8 mM, NaH2 PO4 0.4 mM, and glucose 5.6 mM. The temperature in the bath was kept at 37° C. and the bath was aerated by 95% oxygen/5% carbon dioxide. The buffer solution also contained 10^-7 g/ml mepyramine and 5×10^-8 g/ml atropine in order to prevent the contraction caused by histamine and acetylcholine. Isometric measurement was done by an […] transducer (TD-112S, NIPPON KODEN, Japan) and change of tension in gram was recorded in a recticorder (RTG-4124, NIPPON KODEN, Japan). A tension of 0.5 g was passively loaded on the ileum. Thus, the contraction response of the ileum to SRS extracted from guinea pig lung was observed. The tonic contraction corresponding to one unit of SRS which corresponded to 5 ng of histamine was used as control. Varying concentrations of each compound to be tested were added to the tissue bath. The concentration of each compound to be tested which reduced the contraction of the control by 50%, IC50, was shown as a minimal effective concentration in M in Table 3.

IC50	Structure (SMILES)
50 nM	O=C(O)c1cccc(C=Cc2ccc3ccccc3n2)c1 [Compound 3]
10000 nM	O=C(O)CCCNC(=O)c1cccc(C=Cc2nc3ccccc3s2)c1 [Compound 6, 4-(N-(3-(2-(2-benzthiazolyl))ethenyl)benzoyl)aminobutyric acid]
200 nM	O=C(O)c1cccc(C=Cc2nc3ccccc3s2)c1 [Compound 1, 3-(2-(2-benzthiazolyl))ethenylbenzoic acid]
20 nM	CCCc1csc(C=Cc2cccc(C(=O)O)c2)n1 [Compound 2]
50 nM	CC(C)c1csc(C=Cc2cccc(C(=O)O)c2)n1 [Compound 5, 3-(2-(4-isopropyl-2-thiazolyl))ethenylbenzoic acid]

Structure (SMILES)	IC50
CC(C)(CNC(=O)c1cccc(C=Cc2nc3ccccc3s2)c1)C(=O)O [Compound 7]	50 nM

System: not listed separately
Experiment: Acute toxicity, oral, mice
Details: mouse, in vivo, suspension in 1% tragacanth, ddy male mice, observed for 7 days
Excerpt: A suspension of the compound according to the present invention in 1% tragacanth solution was orally administered to a group of 4 to 5 ddy male mice of 6 week old.

Structure (SMILES)	LD50 at 168 h
CCCc1csc(C=Cc2cccc(C(=O)NCC(CC)(CC)C(=O)O)c2)n1 [Compound 19, 3-(N-(3-(2-(4-propyl-2-thiazolyl))ethenyl)benzoyl)amino-2,2-diethylpropionic acid]	> 1000 mg/kg
CC(C)(CNC(=O)c1cccc(C=Cc2nc3ccccc3s2)c1)C(=O)O [Compound 7]	> 700 mg/kg

Molecular target: Phospholipase A2 from Porcine Pancreas (Sus scrofa, UniProt P00592)
Experiment: in vitro phospholipase inhibiting activity (DPybPC fluorescence)
Details: pH 8, read-out: Phospholipase A2 Inhibition (%)

Chain of Phospholipase A2 from Porcine Pancreas (P00592 23-146): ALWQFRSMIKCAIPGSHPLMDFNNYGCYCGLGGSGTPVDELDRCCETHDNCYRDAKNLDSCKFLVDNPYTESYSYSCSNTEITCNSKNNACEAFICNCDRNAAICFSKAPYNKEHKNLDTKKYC

inhibition at 10 µM	Structure (SMILES)
74%	CC(C)c1csc(C=Cc2cccc(C(=O)NCC3(C(=O)O)CCCCC3)c2)n1 [Compound 22, 3-(N-(3-(2-(4-isopropyl-2-thiazolyl))ethenyl)benzoyl)amino-2-spiro-l'-cyclohexanepropionic acid]
